According to patent US20230381170A1, “METHOD FOR TREATING ALS/FTD THROUGH DEGRADATION OF RNA REPEAT EXPANSION” (University of Florida Research Foundation, Incorporated, priority 2020, published 2023):

Key:
[1] = tested on: r(G2C2)4; assay: 1D NMR imino proton monitoring; assay type: binding; details: hairpin with fully paired stem
Method: (§1) Preparation of MNR Samples. RNA constructs were purchased from GE Dharmacon, Inc. After deprotection and desalting, RNAs were dissolved in buffer comprising 10 mM sodium phosphates and 100 mM LiCl at pH 7.0 and reannealed by heating to 95° C. for 4 min followed by cooling to room temperature. Solvent consisted of H2O, to which 20 μL of D2O was added to provide a lock signal. Final concentrations of RNA were 100 μM for 1D NMR spectroscopy and 400 μM of RNA for 2D NMR spectroscopy. Dimeric derivatives 2 and 3 were dissolved in DMSO-d6 to 10 mM concentrations.
(§2) NMR Spectroscopy. NMR spectra were acquired on samples in Shigemi tubes using Bruker Avance 600 and 700 MHz spectrometers equipped with cryoprobes. 1D spectra were recorded on free form RNA, to which 2 and 3 was added to final compound/RNA molar ratios of 0.5 and 1.0. 2D spectra were acquired with 400 ms mixing times on samples containing 3 at 1.0 compound/RNA molar ratio. In 1D and 2D NMR spectra, WATERGATE and excitation pulse sequences were used to suppress the water signal, respectively (53-55). Proton chemical shifts were referenced internally to 4,4-dimethyl-4-silapentane-1-sulfonic acid (DSS, 0.1 mM). 1D spectra were processed using MestreNOVA software. 2D spectra were processed using NMRPipe and assigned using SPARKY (56).

[2] = tested on: r(G4C2)4; assay: 1D NMR imino proton monitoring; assay type: binding
Method: as §1, §2

[3] = tested on: RAN translation of r(G4C2)66; assay: RAN translation assay in HEK293T cells; assay type: cell-based, human
Method: RAN Translation Assay. Inhibition of RAN translation in HEK239T cells was completed as previously described (12). Briefly, HEK293T cells (6×10^6 cells) were seeded in growth medium and incubated at 37° C. overnight. Cells were co-transfected with 2 μg of a plasmid encoding r(G4C2)66-No ATG-NanoLuciferase and 1 μg SV40-Firefly luciferase plasmid with Lipofectamine 3000 (Life Technologies) per the manufacturer's protocols. Following transfection, the cells (˜8000/well) were plated in a clear bottom 384-well plate and incubated at 37° C. for 2 h. Compounds were added in growth medium such that the final concentration of DMSO was less than 1%. The G4C2-LNA and control-LNA (Table 3) were transfected with RNAiMax at a final concentration of 100 nM following transfection with RNAiMax (Life Technologies) per the manufacturer's recommended protocol. RAN and canonical translation was measured following 24 h treatment using a Dual-Luciferase® Reporter Assay System (Promega) following manufacturer's protocol. Experiments were performed as biological triplicates (n=3). Luminescence from Nano-Luciferase activity (RAN translation) was normalized to luminescence from firefly luciferase activity. This ratio for vehicle-treated samples was then set to 1 and the ratios for treated samples normalized accordingly.

[4] = tested on: transcripts containing short, non-pathogenic r(G4C2) repeats; assay: Off-target RT-qPCR of genes with short r(G4C2) repeats in patient-derived LCL; assay type: cell-based, human; details: 500 nM
[5] = tested on: r(G4C2)exp-containing nuclear foci; assay: RNA FISH of foci in brain of +/+PWR500 mice; assay type: in vivo, mouse; details: compared to vehicle
Method: Therapeutic Efficacy in a c9ALS/FD mouse model. All animal studies were completed as approved by the Scripps Florida Institutional Animal Care and Use Committee. A total of 24 mice (12+/+PWR500 [7 Male and 5 Female] and 12 WT [6 Male and 6 Female]) mice, age- and gender-matched and ranging in age from 18-22 weeks old were used in therapeutic efficacy studies (Table 6). Mice were anesthetized by intraperitoneal (i.p.) injection of 10 mg/mL Ketamine:1 mg/mL Xylazine solution. Intracerebroventricular (ICV) stereotactic injections of 10 μL of 7 (33 nmol) were administered into the right ventricle using the following coordinates: 0.2 mm posterior and 1.0 mm lateral to the right from the bregma and 3 mm deep. Mice were treated with 7 or vehicle consisting of 1% DMSO in Saline. Three weeks post-treatment, mice were euthanized, and tissue was harvested for study.
Fluorescence in situ Hybridization (FISH) with Immunofluorescence (IF). Tissues were excised, and brain tissue was sliced at the midline. The right hemisphere was fresh frozen with OCT in 2-methylbutane in liquid nitrogen, and 10 μm thick sections were prepared using a cryostat. The slides were then stained as previously described (36). […] Average number of foci per nuclei was assessed for each sample and reported. Statistical analysis was measured using an unpaired t-test with Welch's correction.

SMILES	changes in 1D NMR spectrum upon addition of compound [1]	complex formation, imino proton region 1D NMR [2]	RAN translation of r(G4C2)66 (Nano-luciferase activity) [3]	abundance of eight transcripts with short r(G4C2) repeats [4]	number of r(G4C2)exp-containing nuclear foci ([5]; brain)	abundance of antisense r(G2C4)exp foci [5]
Cc1c2ccncc2c(C)c2c1[nH]c1ccc(OCCOCCOCCNCCOCCOCCOc3ccc4[nH]c5c(C)c6ccncc6c(C)c5c4c3)cc12 [Compound 3]	no changes were observed	verified	inhibited			
CCOC(=O)C1=C(Nc2ccccc2)S/C(=C\c2ccc(OCCOCCOCCOCCNC(=O)CCC(=O)N(CCOCCOCCOc3ccc4[nH]c5c(C)c6ccncc6c(C)c5c4c3)CCOCCOCCOc3ccc4[nH]c5c(C)c6ccncc6c(C)c5c4c3)c(O)c2)C1=O [Compound 7]				No decrease	decreased	No effect
